# Entries after “also recorded” stand apart in the source; their conditions may differ.
# How the values were obtained:
# [1] = system: IRSp53 deficient mice; test: 3-chamber sociability test; type: in vivo, mouse; conditions: memantine 10 mg/kg, MPEP 30 mg/kg; for mice preference (sociability behavior) in the 3-chamber sociability test: intraperitoneal injection 30 minutes before the test, vs saline control; for sedation due to side effects: intraperitoneal injection
# Procedure: For the experiment animals of the present invention, wild-type mice backcrossed into a C57BL/6J background and IRSp53 deficient mice were used. The mice were at 2-4 months of age. In addition, in the present invention, all of the experiments were conducted by maintaining a temperature of 20-22° C. and a humidity of 30-40% while the lights are turned on during 7:00 am to 7:00 pm. As the memantine, which is an NMDAR inhibitor and the MGluR inhibitor, the MPEP indirectly inhibiting the NMDAR is dissolved in physiological saline and used. The memantine is used in a concentration of 10 mg (10 mg/kg) per unit weight, and the MPEP is used in a concentration of 30 mg (30 mg/kg) per unit weight, and the drug was administered to the experiment mice by intraperitoneal injection before 30 minutes of every experiment. NMDAR was tested with respect to the sociability behavior of hyperactivated mice. The 3-chamber sociability test and the direct interaction test, which are the most widely used among the behavioral experiments for identifying sociability behavior of mice. The 3-chamber sociability test was conducted by using a behavior experiment box separated into 3 sections. […] A, B, and C of FIG. 1 show the measurement based on the box bottom, the horizontal side surface and the vertical side surface, respectively, and the experiment box was manufactured exposing that the top so the experiment may be photographed by a camera (FIG. 1). In the basic 3-chamber sociability test, a mouse (stranger) was placed in one side and an object (small toy block) without scent was placed in the other side, and the normal mouse (WT) and the deficient mouse were placed in the middle chamber to observe how much attention was given to the other mouse and explored and time was spent. The detailed experiment method of the present invention is described below. First, the wild-type mouse and the IRSp53 deficient mouse were prepared. In addition, before 10 minutes of the experiment, the mouse to be experimented was put into a soundproof booth in which the experiment was to be conducted. 10 minutes later, the holes in the inner wall were blocked and the mouse was put into the middle area. Another 10 minutes later, the holes were opened, and the mouse was allowed to move freely around the 3 chambers. […] During 10 minutes of experiment where the Stranger 1 and the object were placed, the time of the mouse staying at the two areas were measured. In addition, to measure the time of the actual mice exploring the stranger 1 or the object, the time when the nose of the mouse crosses over a virtual line 2 cm away from the plastic cup was measured. […]
# [2] = system: NMDAR; test: NMDA/AMPA ratio, electrophysiology in brain slices; type: cell-based; conditions: IRSp53 deficient mouse, ratio increased vs wild-type; MPEP treatment
# Procedure: (§1) To observe whether the memantine and the MPEP restore the NMDAR function observed on the hippocampus of the IRSp53 deficient mice to a normal range, the electrical signal flow of the synapses through the NMDAR was measured by the electrophysiological experiment.
# In the present experiment, the Long-term potentiation (LTP) and the Long-term depression experiments were conducted. First, the NMDAR properties of the nerve cell of the IRSp53 deficient mice were electrophysiologically measured. The measurement was experimented and conducted by the method disclosed in the paper of Kim M H et al. (Kim, M. H. et al. Enhanced NMDA Receptor-Mediated Synaptic Transmission, Enhanced Long-Term Potentiation, and Impaired Learning and Memory in Mice Lacking IRSp53. J Neurosci 29, 1586-1595, doi:Doi 10.1523/Jneurosci.4306-08.2009 (2009)). The equipment used for the electrophysiological measurement was MultiClamp 700B amplifier and Axopatch 200B of Molecular Devices, and Clampex 9.2 and Clampfit 9 software of the same company were used. During the experiment, BX50WI microscope of Olympus was used.
# In the present experiment, first, for all of the electrophysiological experiment, brain slices were made from the brains of the normal mice and the IRSp53 deficient mice. To make the slices, VT1200S model vibratome of Leica was used. […]
# [3] = system: NMDAR; test: Electrophysiological measurement of NMDAR-LTD in hippocampal brain slices; type: cell-based; conditions: hippocampal brain slices of IRSp53 deficient mouse, weaker NMDAR-LTD than in normal mouse; memantine treatment
# Procedure: as §1
# When the NMDAR is activated by electrically stimulating the never cell, an ion transferred from the outside of the nerve cell to the inside of the nerve cell through the NMDAR according to the activation level exists, and by the ion concentration difference of the inside and outside of the cell, various proteins inside the cell are also activated, thereby showing electrical reaction of the nerve cell with respect to the stimulation. The state in which this reaction is maintained for 30 minutes or longer is called Long-term potentiation (LTP) and Long-term depression (LTD), and when the NMDAR is intensively activated, the LTP may be induced, and when the NMDAR is weakly activated a long-term weakening, LTD may be induced.
# In the present experiment, the Long-term potentiation (LTP) and the Long-term depression experiments were conducted. First, the NMDAR properties of the nerve cell of the IRSp53 deficient mice were electrophysiologically measured. […]
# [4] = system: IRSp53 deficient mouse; test: Nerve cell firing of the medial prefrontal cortex in the anesthetized mouse; type: in vivo; conditions: IRSp53 deficient mice, urethane anesthesia, 10 mg/kg intraperitoneally, observed after 30 minutes
# Procedure: (§2) The memantine was administered to the IRSp53 deficient mouse, and the synapse of the medial prefrontal cortex was structurally and functionally analyzed. In the experiment, the brain slices were not made, an anesthetic drug (1.5 g/kg) named Urethane was used on the mouse to perform the electrophysiological experiment in a condition in which the neural circuitry in the mouse is maintained, and the electrical signal firing of the nerve cell was observed, In detail, in the experiment, the mouse was anesthetized, a glass electrode for measuring the electrical signal was inserted in the medial prefrontal cortex and the hippocampus, and measured. A and I of FIG. 7 show the positions through which each electrode is inserted. From the result of comparing the nerve cell firing of the medial prefrontal cortex of the IRSp53 deficient mouse, in the IRSp53 deficient mouse, the nerve cell firing of the medial prefrontal cortex decreased. Specifically, in the IRSp53 deficient mouse, the nerve cell firing specific to the excitatory nerve cell decreased (B, C and D of FIG. 7).
# [5] = system: wild-type mouse and IRSp53 deficient mouse; test: Nerve cell firing of the hippocampus in the anesthetized mouse; type: in vivo; conditions: IRSp53 deficient mouse compared to wild-type mice after memantine injection
# Procedure: as §2
SMILES,mice preference (sociability behavior) in the 3-chamber sociability test [1],sedation due to side effects [1],NMDA/AMPA ratio [2],NMDAR-LTD [3],nerve cell firing of the medial prefrontal cortex [4],nerve cell firing change in the hippocampus [5]
"Cc1cccc(C#Cc2ccccc2)n1 [MPEP, 2-Methyl-6-(phenylethynyl)pyridine]",improved to a level of the wild-type mice,no sedation due to side effects,restored to the level of the wild-type mouse,,,
CC12CC3CC(C)(C1)CC(N)(C3)C2 [memantine],improved to a level of the wild-type mice,no sedation due to side effects,,restored,the drug showed good effects; also recorded: restored to the normal range,the firing was greater

# Reference: US20180000802A1, “PHARMACEUTICAL COMPOSITION FOR PREVENTION AND TREATMENT OF MENTAL DISEASE WITH ENHANCED NMDAR FUNCTION” (INSTITUTE FOR BASIC SCIENCE, priority 2015, published 2018)
